What was measured:
Type in all cases: biochemical
IAPP = molecular target: T1, IAPP (Homo sapiens, UniProt P10997); assay: CD analysis of IAPP fibril formation (Example 4); design: add 10 μL of 10 mg/mL IAPP stock solution (final 100 ng peptide)
T1 sequence (P10997 34-70 limits assumed): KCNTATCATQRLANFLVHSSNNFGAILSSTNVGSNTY

Aβ42 = molecular target: T2, Aβ42 (Homo sapiens, UniProt P05067); assay: Solubility assay using Bradford detection (Aβ fibril formation); conditions: roughly 1:10 peptide:compound, overnight at room temperature, 10 mM phosphate buffer pH 7
T2 construct: Stock solution of Aβ42 or Aβ40 peptide at 5 mg/ml in distilled water, pH 7; made in house; host or cells: chemical synthesis (FMOC), HPLC purified
T2 sequence (P05067 672-713 limits assumed): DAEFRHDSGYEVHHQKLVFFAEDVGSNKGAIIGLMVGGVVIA
Protocol: Alternatively, peptides can also be obtained from a number of commercial sources (e.g., BaChem and Peninsula Laboratories, California). The assay was conducted as follows. Stock solution of Aβ42 or Aβ40 peptide at 5 mg/ml in distilled water, pH 7, and stock solutions of each test compound at 2 mg/ml in distilled water, pH 7 were prepared. • 1. Mix 5 μl (25 μg) of stock Aβ and 12.5 μl (25 μg) of stock test compounds into 1000 μl of 10 mM phosphate buffer, pH 7. This provides a molar ratio of roughly 1:10 [ peptide:compound] assuming a general molecular weight of 400 daltons for the test compounds. Control samples were prepared for both peptide and compound. These contained Aβ only using both 25 μg (5 μl stock Aβ) and 50 μg ([…]) to provide a standard curve for each run. Test compound controls contained 25 μg of material (12.5 μl of stock). All samples were mixed in 1000 μl of 10 mM phosphate buffer, pH 7 to final volume of 1017.5 μl. • 2. Incubate all samples overnight at room temperature without mixing. • 3. Spin at 14,000 rpm for 10 min in table top Eppendorf microfuge. • 4. Take 800 μl of supernatant. • 5. Add 200 μl of Bradford reagent (purchased from BioRad). • 6. Mix well by vortexing. • 7. Read at OD595 nm.

Aβ(1-40) = molecular target: T3, Aβ(1-40) (Homo sapiens, UniProt P05067); assay: Circular dichroism analysis, pre-incubation assay, β-sheet at 218 nm; conditions: CD 218 nm, 0.02M Tris pH 7.4
T3 construct: Prepare a fresh 40 μm solution of Aβ(1-40) in 0.02M Tris, pH 7.4; made in house; host or cells: chemical synthesis (FMOC), HPLC purified
T3 sequence (P05067 672-711 limits assumed): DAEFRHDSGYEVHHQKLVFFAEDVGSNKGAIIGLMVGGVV
Protocol: The assay is conducted as follows:
Instrument: JASCO J-715 Spectropolarimeter.
Cell/cuvette: Hellma quartz (QS) with 1.0 mm pathlength Room temperature. Wavelength interval: 250 nm-190 nm.
Band width: 1.0 nm Response time: 1 sec Scanning speed: 20 nm/min Number of accumulations/spectrum: 5
1. Prepare a fresh 40 μm solution of Aβ(1-40) in 0.02M Tris, pH 7.4.
2. Prepare a 1 mM solution of test compounds in 0.02M Tris, pH 7.4.
3. Combine equal volumes of the Aβ(1-40) and test compound solutions.
4. Incubate the mixtures for 19 h.
5. Take the CD spectrum using the parameters above.
6. Return the mixtures to the incubator and incubate to 43 h.
7. Take the CD spectrum using the parameters above. • Inhibition of Aβ40 assembly/aggregation is determined by comparing the amount of b-sheet structure) appearing at lambda=218 nm) obtained in control and in treated sample at each timepoint.

Aβ42 peptide = molecular target: T4, Aβ42 peptide (Homo sapiens, UniProt P05067); assay: ELISA solubility assay (Aβ fibril formation); conditions: 1:10 peptide:compound, overnight at room temperature, 10 mM phosphate buffer
T4 construct: Stock solution of Aβ42 or Aβ40 peptide at 5 mg/ml in distilled water, pH 7; made in house; host or cells: chemical synthesis (FMOC), HPLC purified
T4 sequence (P05067 672-713 limits assumed): as the sequence (P05067 672-713 limits assumed) above
Protocol: The assay was conducted as follows. Stock solution of Aβ42 peptide at 5 mg/ml in distilled water, pH 7, and stock solutions of each test compound at 1 mg/ml in distilled water, pH 7 were prepared. • 1. A 10 μg sample of peptide was mixed with compound at a molar ratio of 1:10 [ peptide:compound] in 500 μl of 10 mM phosphate buffer. Control samples contained peptide only. • 2. The mixture was incubated overnight at room temperature without agitation. • 3. The incubated mixture was centrifuged at 14,000 rpm (Eppendorf microfuge) for 5 minutes to separate the soluble peptide. • 4. 400 μl aliquots of supernatant were removed for ELISA assay.
ELISA • 1. 100 μl of prepared samples were coated in 96 wells NUNC microplates (each sample tested in triplicate) • 2. The plate was incubated at 37° C. for 3 hours, then at 4° C. overnight. • 3. The wells were washed twice with 0.05% Tween 20 in phosphate buffered saline. • 4. 250 μl of 3% skim milk powder in PBS was used to block non-specific binding to the wells (at 37° C. for 1.5 hours) • 5. The wells were washed with 0.05% Tween 20/PBS twice. • 6. A 100 μl aliquot of diluted (final dilution 1:100 in PBS) mouse monoclonal anti-Aβ antibody (purchased from DAKO recognizing the N-terminal residues 1-10) was added to each well. The antibody was then incubated at 37 C for 2 Hours. • 7. The wells were washed with 0.05% Tween 20/PBS six times (5 min/wash). • 8. Visualization was performed using 100 μl of diluted goat anti-mouse IgG (H^+ L) conjugated with alkaline phosphatase (purchased from BioRad) was added to each well. The plate was incubated at 37° C. for 1 hour. • 9. The wells were washed with 0.05% Tween 20/PBS six times (5 min/wash). • 10. The color reaction was developed using 100 μl of alkaline phosphatase substrate (purchased from BioRad) which was added to each well. • 11. The relative amounts of Aβ were obtained by measuring the OD of the sample at 405 nm using a standard ELISA plate reader.
Compounds were characterized as “active” if 40-50% of Aβ42 remained in the supernatant.

Row | SMILES | Activity (preventing or inhibiting IAPP fibril formation) (IAPP) | Aβ42 remaining in the supernatant (activity class) (Aβ42) | relative inhibition compared to Aβ alone, incubation time 0 h (Aβ(1-40)) | relative inhibition compared to Aβ alone, incubation time 19 h (Aβ(1-40)) | relative inhibition compared to Aβ alone, incubation time 43 h (Aβ(1-40)) | Aβ42 remaining in the supernatant (activity class) (Aβ42 peptide)
1 | O=S(=O)(O)CCCNC1(CO)CCCC1 [XLII, 3-(1-hydroxymethyl-1-cyclopentyl)amino-1-propanesulfonic acid] | Active | – | – | – | – | –
2 | O=S(=O)(O)CCCN1CCc2ccccc2C1 [XVII, 3-[2-(1,2,3,4-tetrahydroisoquinolinyl)]-1-propanesulfonic acid] | – | Active | —^1, 2 (No effect compared to Aβ alone) | + (+: 0-25%) | ++ (++: 25-50%) | –
3 | COc1cc(-c2ccc(N=Nc3ccc4c(S(=O)(=O)[O-])cc(S(=O)(=O)[O-])c(N)c4c3O)c(OC)c2)ccc1N=Nc1ccc2c(S(=O)(=O)[O-])cc(S(=O)(=O)[O-])c(N)c2c1O.[Na+].[Na+].[Na+].[Na+] [XXIX, Chicago Sky Blue 6B] | – | Very active | – | – | – | –
4 | Cc1ccc2nc(-c3ccc(N=NNc4ccc(-c5nc6ccc(C)c(S(=O)(=O)[O-])c6s5)cc4)cc3)sc2c1S(=O)(=O)[O-].[Na+].[Na+] [XXVIII, Thiazol Yellow G] | – | – | – | – | – | Active
5 | CC(CCCO)NCCCS(=O)(=O)O (stereo not drawn) [XXXVIII, 3-[(dl)-5-hydroxy-2-pentyl]amino-1-propanesulfonic acid] | Active | – | — (No effect compared to Aβ alone) | +++ (+++: 50-75%) | ++ (++: 25-50%) | –
